Results on four compounds are retold here after patent publication US20150010474A1, “Compounds And Methods For Selective Imaging And/Or Ablation” (Auckland Uniservices Limited, priority 2011, published 2015).

Where only a bound is given, the exact number is not on record here.

The test system of data set [1] is HCT116 wild type (WT) cancer cells. The data set is described as follows: Inhibition of cell proliferation, low cell density IC50 assay. In kind it is cell-based. The settings on record: Homo sapiens, HCT-116; 4 hour drug exposure, washing and regrowth for 5 days. As to the method:
(§1) IC50 values were determined as the concentration of prodrug required to inhibit cell growth by 50% of untreated controls following 4 hour drug exposure, with washing and regrowth for 5 days. WT:NfsA ratios were determined as the WT IC50/NfsA IC50.

The test system of data set [2] is HCT116 cells overexpressing the nitroreductase NfsA from E. coli. Described as above. The data set is classed as cell-based, human. The settings on record: for IC50: Homo sapiens, HCT-116, 4 hour drug exposure, washing and regrowth for 5 days; for WT:NfsA: WT IC50/NfsA IC50. How it is done: as §1
Data set [3] deals with HCT-116 cells stably over-expressing cytochrome P450 reductase (CYPOR). The data set can be described thus: Flow cytometry of metabolism and binding (EF5 antibody). The data set is classed as cell-based, human. Particulars: 2 h. As to the method: FIG. 4 illustrates the results of a second independent flow cytometry analysis of compound 15 and 93 metabolism and binding in wild-type HCT-116 cells, HCT-116 cells stably over-expressing cytochrome P450 reductase (CYPOR), a human one-electron reductase known to metabolise nitroheterocyclic and nitroaromatic compounds, or HCT-116 cells stably expressing the bacterial nitroreductase E. coli NfsA. 1×10^6HCT-116 cells were seeded in 6 well plates underaerobic conditions (21% O2, 5% CO2). After 2 h incubation, drug free control (wild-type HCT-116, foreground), 20 μM (wild-type HCT-116, second plot), 100 μM (wild-type HCT-116, third plot), 20 μM (HCT-116-CYPOR, forth plot), 100 μM (HCT-116-CYPOR, fifth plot) or 20 μM (HCT-116-NfsA, sixth plot) of compound 15 or 93 was added. After 2 h incubation cells were harvested and fixed with paraformaldehyde before being incubated overnight with 100 μl of 75 μg/ml EF5 CY5 conjugated antibody. Samples were then analysed on a Becton Dickinson FACscan flow cytometer.
FIG. 5 illustrates the results of flow cytometry analysis of HCT-116 cells stably over-expressing cytochrome P450 reductase (CYPOR), a human one-electron reductase known to metabolise nitroheterocyclic and nitroaromatic compounds. 1×10^6HCT-116-CYPOR cells were seeded in 6 well plates in aerobic, anoxic and 0.2% oxygen conditions designed to replicate the lower limit of pathological hypoxia observed in human tumours. After 2 h incubation, drug free control (foreground), 20 μM (middle) or 100 μM (background) of compound 15 or 67 was added. After 2 h incubation cells were harvested and fixed with paraformaldehyde before being incubated overnight with 100 μl of 75 μg/ml EF5 CY5 conjugated antibody. Samples were then analysed on a Becton Dickinson FAC scan flow cytometer.
FIG. 6 illustrates the results of flow cytometry analysis of compound 15 and 93 metabolism and binding in wild-type HCT-116 cells and HCT-116 cells stably over-expressing cytochrome P450 reductase (CYPOR), a human one-electron reductase known to metabolise nitroheterocyclic and nitroaromatic compounds. 1×10^6 HCT-116 cells were seeded in 6 well plates underanoxic conditions. After 2 h incubation, drug free control (wild-type HCT-116, foreground), 20 μM (wild-type HCT-116, second plot), 100 μM (wild-type HCT-116, third plot), 20 μM (HCT-116-CYPOR, forth plot) or 100 μM (HCT-116-CYPOR, fifth plot) of compound 15 or 93 was added. After 2 h incubation cells were harvested and fixed with paraformaldehyde before being incubated overnight with 100 μl of 75 μg/ml EF5 CY5 conjugated antibody. Samples were then analysed on a Becton Dickinson FACscan flow cytometer.

The test system of data set [4] is nfsA expressing HCT116 cells. The settings on record: 0.7 mM-hr cold EF5; cited from earlier work.
The conditions of data set [5]: cited from earlier work.
The target of another data set is T1, NfrA (B.s) (Bacillus subtilis, UniProt P39605).
T1 construct: made in house
T1 sequence (P39605 whole entry): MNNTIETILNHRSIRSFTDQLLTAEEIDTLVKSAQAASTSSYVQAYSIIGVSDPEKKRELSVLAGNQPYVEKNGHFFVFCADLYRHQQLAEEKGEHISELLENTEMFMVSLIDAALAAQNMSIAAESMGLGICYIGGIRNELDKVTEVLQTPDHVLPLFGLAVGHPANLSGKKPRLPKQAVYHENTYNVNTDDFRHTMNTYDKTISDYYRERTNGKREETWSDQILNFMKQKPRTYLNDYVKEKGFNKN
The data set is described as follows: Initial rate of metabolism by purified recombinant bacterial nitroreductase (NADPH consumption, UV/Vis). The data set is classed as biochemical. The settings on record: compound 500 μM, NADPH 200 μM, 10 mM Tris-Cl pH 7.0; μmol NADPH consumed per mg enzyme per minute. As to the method:
(§2) The relative initial rates of reductive metabolism of the nitro moiety of test compounds by bacterial nitroreductase's can be measured experimentally by incubating the test compound at near-saturating concentration (determined empirically) with the purified recombinant bacterial nitroreductase enzymes in the presence of NADPH co-factor. UV/Vis spectroscopy is used to measure consumption of the co-factor, indicating metabolism of the test compound by the nitroreductase.
(§3) Compounds 67, 93 and 97 (500 μM) were added to NADPH (200 μM) in 10 mM Tris-Cl pH 7.0. Reactions were initiated by enzyme addition (between 5 and 20 μg per reaction). Rates represent μmol of NADPH consumed per mg enzyme added per minute.

Another data set deals with T2, NfsA (E.c) (Escherichia coli, UniProt P17117).
T2 construct: made in house
T2 sequence (P17117 whole entry): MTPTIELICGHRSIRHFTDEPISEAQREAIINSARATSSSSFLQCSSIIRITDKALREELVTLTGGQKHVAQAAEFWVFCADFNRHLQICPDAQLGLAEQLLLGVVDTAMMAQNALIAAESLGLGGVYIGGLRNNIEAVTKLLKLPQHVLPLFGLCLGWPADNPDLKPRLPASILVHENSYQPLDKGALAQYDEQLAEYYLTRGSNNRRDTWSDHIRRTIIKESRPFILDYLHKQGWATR
Described as above. In kind it is biochemical. The settings on record: compound 500 μM, NADPH 200 μM, 10 mM Tris-Cl pH 7.0; μmol NADPH consumed per mg enzyme per minute. As to the method:
as §2, §3

For another data set, the target named is T3, NfsB (E.c) (Escherichia coli, UniProt P38489).
T3 construct: made in house
T3 sequence (P38489 whole entry): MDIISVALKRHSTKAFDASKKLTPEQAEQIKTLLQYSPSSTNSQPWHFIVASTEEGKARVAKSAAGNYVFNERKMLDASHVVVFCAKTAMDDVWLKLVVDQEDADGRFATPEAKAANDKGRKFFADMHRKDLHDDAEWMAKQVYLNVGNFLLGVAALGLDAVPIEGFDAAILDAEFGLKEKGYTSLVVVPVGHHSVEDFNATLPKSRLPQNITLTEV
The data set is described as above. In kind it is biochemical. The settings on record: compound 500 μM, NADPH 200 μM, 10 mM Tris-Cl pH 7.0; μmol NADPH consumed per mg enzyme per minute. As to the method:
as §2, §3

A further data set has as its target T4, YcnD (B.s) (Bacillus subtilis, UniProt P94424).
T4 construct: made in house
The description is as above. The data set is classed as biochemical. The settings on record: compound 500 μM, NADPH 200 μM, 10 mM Tris-Cl pH 7.0; μmol NADPH consumed per mg enzyme per minute. As to the method:
as §2, §3

Data set [6] concerns NTR over-expressing E. coli SOS-R2. The data set can be described thus: Growth Inhibition assay in 58-membered NTR over-expression library. In kind it is cell-based, Escherichia coli. The settings on record: 4 h incubation.
For data set [7], the system named is bacterial nitroreductase over-expressing E. coli strains. The data set is described as follows: IC50 (turbidity) in selected NTR over-expressing library strains. The data set is classed as cell-based, Escherichia coli. Particulars: 4 h post-challenge, serial dilution. How it is done: FIG. 2.3 illustrates the IC50 of compound 67 for selected NTR library strains (i.e. the concentration of compound 67 that yielded only 50% turbidity relative to an unchallenged control 4 h post-challenge, in replicate cultures across a serial dilution of compound 67). The strains selected were all those observed to have SOS activity above the empty plasmid control (“Empty”) in response to challenge with compound 67 as illustrated in FIG. 2(B), plus NfsB (E.c) as a negative control. For the IC50 assays, 100 μl of overnight cultures were used to inoculate 2 ml M63 minimal medium supplemented with 100 μg·ml^−1 ampicillin and 50 μM IPTG and incubated at 30° C., 200 rpm for 3.5 h. 40 μL aliquots from each culture were then added to individual wells of a sterile 384 well plate, each already containing 40 μl of ampicillin and IPTG-supplemented M63 medium and a dilution series of compound 67 as indicated on the X-axis of panel A. A. Raw growth curves. Each NTR over-expression strain was tested at least in duplicate (independent replicates), with the exception of NfsB (E.c), which was only measured once. Culture turbidity was monitored by optical density at 600 nm 4 h post-challenge. B. IC50 values calculated by comparison of the challenged cells with the unchallenged control for each strain, after subtracting the initial absorbance values (t=0 h), using SigmaPlot 10.0 (Systat Software Inc., Richmond, Calif.). Errors are 1 standard error of the mean (SEM).
FIG. 2.4 illustrates the IC50 of compound 93 for selected NTR library strains. […] B. IC50 values calculated by comparison of the challenged cells with the unchallenged control for each strain, after subtracting the initial absorbance values (t=0 h), using SigmaPlot 10.0 (Systat Software Inc., Richmond, Calif.). […]
FIG. 2.5 illustrates the IC50 of compound 97 for selected NTR library strains. […] B. IC50 values calculated by comparison of the challenged cells with the unchallenged control for each strain, after subtracting the initial absorbance values (t=0 h), using SigmaPlot 10.0 (Systat Software Inc., Richmond, Calif.). […]

The test system of data set [8] is human solid tumour xenograft NCI-H1299 (WT). The data set can be described thus: Hypoxia-dependent binding by ex vivo flow cytometry with pimonidazole co-staining. The data set is classed as in vivo, NIH-III nude mice. Particulars: 60 mg/kg i.p.; tumours excised after 120 minutes, single cell suspension. How it is done: FIG. 11 illustrates the absence of hypoxic-dependent binding of compound 67 and compound 93 by flow cytometry in the human solid tumour xenograft NCI-H1299, with reference to hypoxia staining by compound 15 and pimonidazole (Hypoxyprobe™) as internal standards (positive controls). NCI-H1299 WT tumours were inoculated subcutaneously onto the flank of NIH-III nude mice. When the mixed tumours reached approximately 800 mm^3, mice were dosed i.p. with 60 mg/kg of pimonidazole, and 60 minutes later dosed with either 60 mg/kg of compound 15, or 60 mg/kg of compound 67, or 60 mg/kg of compound 93. After 120 minutes the tumours were excised and enzyme digested to form a single cell suspension before fixation in ice cold 80% ethanol. Single cell immunodetection of bound adducts of compounds was performed using a monoclonal antibody (Mab1, hybridoma clone 4.3.11.3) conjugated to Alexa-488 (Ex/Em 499/519; green) for the detection of pimonidazole adducts, and monoclonal antibody ELK3-51 directly conjugated to the fluorophore CY5 (Ex/Em 650/670 nm; red) for detection of adducts formed by compound 15 or compound 67 or compound 93. The ex-vivo tumour cell samples were analysed on a Becton Dickinson FACscan flow cytometer using FACS Diva software. Integrated fluorescence measurements were recorded for 10,000 single non-debris events. Fluorescence emission was monitored at 530 nm±20 and 670-700 nm for detection of Alexa-488 and CY5 conjugated monoclonal antibodies, respectively.
On the technique in general: A flow cytometer gives signals particle by particle.

T4 sequence (P94424 whole entry): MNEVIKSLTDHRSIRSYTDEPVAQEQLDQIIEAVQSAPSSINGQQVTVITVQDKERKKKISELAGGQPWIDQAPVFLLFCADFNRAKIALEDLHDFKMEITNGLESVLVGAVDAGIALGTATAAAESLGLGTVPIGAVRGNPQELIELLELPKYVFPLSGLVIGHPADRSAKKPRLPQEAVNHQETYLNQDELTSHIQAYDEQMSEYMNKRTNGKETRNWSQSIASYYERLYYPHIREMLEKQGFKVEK

`O=[N+]([O-])c1nccn1Cc1cn(C(CO)CF)nn1` (stereo not drawn) [Compound 19, reference compound]: the IC50 in data set [1] was over 12500 µM; in data set [2], 16 µM. Besides, the “WT:NfsA” value in data set [2] is recorded as over 781.
On to `O=C(Cn1ccnc1[N+](=O)[O-])NCC(F)(F)C(F)(F)F` [Compound 15, 2-(2-nitro-1H-imidazol-1-yl)-N-(2,2,3,3,3-pentafluoropropyl)acetamide], for which the half-inhibitory concentration (IC50) in data set [1] came out at 2270 µM; in [2], 1 µM. In [2], the “WT:NfsA” value is 2270. In addition, in data set [3] (20 μM and 100 μM, aerobic conditions), the “Metabolism and binding by FACS, HCT-116-CYPOR cells (FIG. 4)” value was “minimal metabolism and binding”. For the same compound, the “Metabolism and binding by FACS, HCT-116-CYPOR cells, anoxia (FIG. 6)” value in data set [3] (20 μM and 100 μM, anoxic conditions) is “significant dose-dependent and reductase dependent increases in metabolism and binding”. In addition, the “Metabolism and binding by FACS, HCT-116-CYPOR cells, 0.2% oxygen (FIG. 5)” value in [3] (20 μM or 100 μM, 0.2% oxygen) is “Significant dose-dependent increases in metabolism”. Moreover, in data set [3] (20 μM or 100 μM, aerobic), the “Metabolism and binding by FACS, HCT-116-CYPOR cells, aerobic (FIG. 5)” value was “negligible metabolism and binding”. In addition, the “Metabolism and binding by FACS, HCT-116-CYPOR cells, anoxia (FIG. 5)” value in data set [3] (20 μM or 100 μM, anoxia) is given as “Significant dose-dependent increases in metabolism”. In addition, the “Loss of viability for nfsA expressing HCT116 cells” value in [4] is reported as 90%. Moreover, the “Concentration-time achieved in human plasma” value in data set [5] (cold EF5 9 mg/kg) is given as 0.89 mM-hr. For the same compound, the “Plasma AUC” value in data set [5] (dose of 21 mg/kg injected) was 2 mM-hr. For the same compound, the “Tolerability of injected dose” value in [5] (dose of 21 mg/kg) was “safely injected without any toxicities”.
`O=[N+]([O-])c1cn(Cc2cn(C(CO)CF)nn2)cn1` (stereo not drawn) [Compound 97, 3-fluoro-2-(4-((4-nitro-1H-imidazol-1-yl)methyl)-1H-1,2,3-triazol-1-yl)propan-1-ol] came in with a melting point of 126 to 129 °C. Besides, the “Rate of metabolism by NfrA (B.s)” value on NfrA (B.s) turned out to be 3.9 µmol/min/mg. Moreover, the “Rate of metabolism by NfsA (E.c)” value on NfsA (E.c) turned out to be 4.3 µmol/min/mg. The “Rate of metabolism by NfsB (E.c)” value on NfsB (E.c) worked out at 1.4 µmol/min/mg. The “Rate of metabolism by YcnD (B.s)” value on YcnD (B.s) is 6.2 µmol/min/mg. Besides, in [1], the IC50 was over 12500 µM. Further, in data set [2], the IC50 was 178 µM and the “WT:NfsA” value is reported as over 70. In addition, the “Reductive metabolism at the nitro moiety by NTR library members (NfsA and NfsB families)” value in data set [6] (400 μM compound 67, 130 μM compound 93, 800 μM compound 97) was “reductively metabolised at the nitro moiety by the majority of the NfsA and NfsB families tested”. In addition, in data set [6] (800 μM compound 97), the “Metabolism by members of the NemA nitroreductase family” value is on record as “Modest metabolism”. Besides, the “Inhibition of bacterial cell growth in NTR over-expressing strains compared to controls” value in data set [7] was “Inhibition of bacterial cell growth was selectively observed”.
Regarding `O=[N+]([O-])c1nccn1CC(O)CN1CCCCC1` (stereo not drawn) [pimonidazole, reference compound], the “Hypoxia-dependent binding in NCI-H1299 WT tumours, flow cytometry (FIG. 11)” value in data set [8] is “hypoxic cells that are detected by pimonidazole adduct retention”.

What is called IC50 is the concentration needed to halve the response being measured. Read a high IC50 as weaker potency in that assay. One may read the melting point as the temperature of the solid-liquid transition.
